Measured values taken from US11865104B2, “Antitumor TET2 modulating compounds” (THE CLEVELAND CLINIC FOUNDATION, priority 2017, dated 2024).
“Also recorded” adds a separate entry of the source.

Assays:
K562 = test: Growth suppression / cell survival dose response in leukemia cell lines; type: cell-based, human; settings: K562, high TET2 expressing
Excerpt: (§1) FIGS. 3A-3G provide graphs showing the In-vitro efficacy of TETi in the elimination of TET2MTcells. A. Leukemia cell lines express different level of TET2. B. Ratio of TET2 expression vs. Lamin C. The dose response curves of cell survival with different concentration of TETi76 D. LD50 plotted against the relative expression of TET2 and C. E. Colony forming abilities of K562 TET2^+/+ and TET2^−/− cells in the presence and absence of TETi76. Data is representative of 3 independent experiment performed separately. F. Colony forming abilities of two independent normal bone marrow cells (NBM) and SIGM5 cells in MethoCult in the presence and absence of TETi76. Data is the summary of three independent experiments performed separately. G. Bone marrow from Tet2^+/+, Tet2^+/− and Tet2^−/− mice were harvested and cultured in MethoCult in the presence or absence of TETi76.
(§2) Efficacy and specificity of TETi. We used established tet2^+/− vs. tet2^−/− mouse models as well as several human myeloid cell lines selected to harbor TET2^MT or to express low level of TET2 to determine the specificity, establish the read out and provide proof of concept for the proposed strategy. […] The IC50 of different cells against TETi76 is inversely correlated with TET-activity (FIG. 3).

HEL01 = test: as above; type: cell-based, human; settings: HEL01, high TET2 expressing
Excerpt: as §1, §2

tet2^MT clones = test: In vivo mixed bone marrow transplant, CD45.2 vs CD45.1 ratio; design: species or system mice; settings: 80 mg/kg 5 days/week, irradiated CD45.1 recipients transplanted with mixed marrow
Protocol: FIGS. 4A-4E provide graphs and images showing the In-vivo efficacy of TETi in the elimination of cells with TET2^MT. […] Tet^mt bone marrow cells were mixed in the ratio of 1:2 with tet2^+/+ bone marrow cells isolated from Pep (CD45.1). The mixed bone marrow cells were treated either with DMSO or with TETi76 in MethoCult™. Cells were isolated and ratio of CD45.1 (Pep, tet2^+/+) and CD45.2 (tet2mt) was determined by flow using antibodies against CD45.1 and CD45.2. B. Tet2^+/− bone marrow cells were mixed in the ratio of 1:2 with Tet2^+/+ in MethoCult with the treatment of DMSO or TETi76. Ratio of Tet2^+/− vs Tet2^+/+ was measured by flow. C. […] Ratio of Tet2^+/− vs Tet2^+/+ was measured by flow. […] CD45.1+ vs. CD45.2+ was serially assessed.
To further validate the feasibility of our proposed strategy as a therapeutic principle, we used mixing experiments in which tet2^MT/tet2^WT were co-cultured at fixed ratios to mimic evolving tet2MT clone and the differences in isoform fractions served as read out. […] As expected, tet2^MT grew at faster rate in the controls as reflected in the increased ratio >1:1 of tet2^MT/tet2^WT, while TETi treatment selectively eliminated the tet2^MT cells as determined using CD45.1/CD45.2 surface markers on tet2^WT and tet2^MT bone marrow, respectively (FIGS. 4A&B). […] First we determined MTD utilizing a dose escalation in a group of 3 mice each. […]

MOLM13 = test: Growth suppression / cell survival dose response in leukemia cell lines; type: cell-based; settings: Homo sapiens, MOLM-13; MOLM13, least TET2 expression
Excerpt: as §1, §2

SIGM5 = test: as above; type: cell-based; settings: Homo sapiens, SIG-M5; SIGM5, least TET2 expression
Excerpt: as §1, §2

[1] = MTD by dose escalation in mice; settings: mouse, in vivo
Protocol: To further validate the feasibility of our proposed strategy as a therapeutic principle, we used mixing experiments in which tet2^MT/tet2^WT were co-cultured at fixed ratios to mimic evolving tet2MT clone and the differences in isoform fractions served as read out. In long-term culture of normal marrow from B6Cd45.1 Pep Boy vs. B6CD45.2 mice of tet2^+/− and tet2^−/− genetic background. Marrow cell from 3 mice/group were cultured in 1:2 ratio of tet2^MT/tet2^WT with/without TETi. Over the period of culture TETi effectively eliminated otherwise dominating tet2^+/− cells (FIG. 4). As expected, tet2^MT grew at faster rate in the controls as reflected in the increased ratio >1:1 of tet2^MT/tet2^WT, while TETi treatment selectively eliminated the tet2^MT cells as determined using CD45.1/CD45.2 surface markers on tet2^WT and tet2^MT bone marrow, respectively (FIGS. 4A&B). […] In vivo efficacy of TETi. […] First we determined MTD utilizing a dose escalation in a group of 3 mice each. […] The MTD was determined at 168 mg/kg. […] Once mice were fully recovered as determined by their weight, the ratio of tet2^MT and tet2^WT marrow was confirmed by CD45.1/CD45.2 cytometry prior to treatment. […] Ratio of CD45.2 vs. CD45.1 was determined at different time points (FIGS. 4D&E). […]

K562 TET2^KO cells = test: Colony forming assay in TET2 knock-out K562 cells; type: cell-based, human; settings: K562 TET2^KO vs K562
Excerpt: as §1, §2

[2] = system: MOLM and K562 TET2 knockdown cells; test: Culture of TET2 knockdown cell lines; type: cell-based; settings: preliminary experiments
Gulo^−/−Tet2^+/− cells = test: hmC level in Gulo^−/−Tet2^+/− cells; type: cell-based
Excerpt: We optimized assays to assess the impact of mutation or haploinsufficiency on dioxygenase activity in our laboratory. We deployed 2 independent methods for the quantification of hmC/mC. First, a semi quantitative method of dot blot and second a highly sensitive 2D-UPLCMS method. These methods were used to determine the relative activity of TET2 enzymatic function. We can quantify TET2 dioxygenase activity products in cell lines and patient's bone marrow cells with various types of TET2^MT (FIG. 3E) in genetically modified (retrovirally-transduced TET2 shRNA) K562 and MOLM13 cells and bone marrow from Tet2^−/− and Tet^+/− mice. As expected, haploinsufficiency of TET2 leads to gene-dose dependent decreases in 5hmC and further oxidized products.

Row | SMILES | sensitivity to treatment (K562) | sensitivity to treatment (HEL01) | growth of tet2^MT clones in vivo (ratio CD45.2 vs CD45.1) (tet2^MT clones) | IC50 (MOLM13) | IC50 (SIGM5) | mortality at MTD [1] | MTD at 3 months ([1]; dose escalation, groups of 3 mice, 5 days a week, weekly dose increments) | colony forming, effect of TET2 knock-out on sensitivity (K562 TET2^KO cells) | inhibitory effects compared to cells with scrambled shRNA [2] | levels of TET2 product hmC (Gulo^−/−Tet2^+/− cells)
1 | C=C(CC(O)C(=O)OCC)C(=O)OCC (centres unmarked) [TETi76] | lowest sensitivity | lowest sensitivity | most pronounced against tet2^−/− compared to tet2^+/− genotype; also recorded: prevents clonal expansion Tet2MT cells in vivo | 9.6 µM | 11.2 µM | no mortality | 168 mg/kg | sensitized these cells to TETi76 | – | –
2 | O=C1O[C@H]([C@@H](O)CO)C(O)=C1O [vitC, vitamin C] | – | – | – | – | – | – | – | – | differential and dose-dependent inhibitory effects | increases levels of the TET2 product hmC
3 | COC(=O)CCC(=O)C(=O)OC [DMKG] | – | – | – | – | – | – | – | – | differential and dose-dependent inhibitory effects | –
